We go through one molecule from US9399133B2, “Non-invasive automated electrical control systems and methods for monitoring animal conditions” (Rhode Island Board of Education, State of Rhode Island and …, priority 2012, dated 2016).

The test system of this assay is status epilepticus (SE) induced by lithium-pilocarpine (LP). The assay is described as follows: Status epilepticus induced by lithium-pilocarpine in rats receiving TFS, alone and combined with subeffective doses of diazepam. The class given is in vivo. An excerpt:
This study was designed to evaluate status epilepticus (SE) induced by lithium-pilocarpine (LP) in rats receiving TFS, alone and combined with subeffective doses of diazepam, an antiepileptic drug that belongs to the group of benzodiazepines. Diazepam is currently considered one of the drugs of choice to stop SE.

[1] abbreviates: LP+TFS+DZP group compared with LP, LP+DZP and LP+TFS groups, p<0.001.

In the case of `CN1C(=O)CN=C(c2ccccc2)c2cc(Cl)ccc21` [diazepam], under setting [1], the “latency to mild generalized seizure” value is given as “significantly increased”, the “latency to the establishment of the SE” value is “significantly increased” and the “latency to the first forelimb clonus” value is “significantly increased”. Where the note is “subeffective dose of diazepam combined with TFS (LP+TFS+DZP group), p<0.0001 vs LP, p<0.003 vs LP+DZP”, the “total protection against LP-induced seizures and SE, animals” value is 62%. Also, the “latency and incidence of LP-induced behavioral alterations” value (subeffective doses of diazepam administered prior to the pilocarpine, without TFS, in comparison to the LP group) is on record as “Non-significant changes”. Besides, the “rats presenting seizures and SE” value (subeffective doses of diazepam prior to pilocarpine, without TFS (LP+DZP group)) is “All rats presented seizures and SE”.
